Laboratory results: US20120196933A1, “MEXILETINE PRODRUGS” (priority 2010, published 2012)
Values joined by “and” are separate entries in the source; they are usually repeats but may differ in a detail not shown here. Equal entries are not always repeated. Where two headings read alike, the source gives them in different places. Marks after values point to notes of the source that are not given here.

What was measured:
[1] = In vitro stability of mexiletine prodrugs under conditions prevailing in the gut; type: physicochemical; conditions: HPLC
Procedure: To investigate if the prodrugs of the present invention are stable in conditions mimicking the gut, various mexiletine amino acid prodrugs were incubated at 37° C. in simulated gastric and simulated intestinal juice (USP defined composition) for 2 hours. The remaining concentrations of the prodrug were then assayed by HPLC.

[2] = as above; type: physicochemical; conditions: 0.1M phosphate buffer pH 7.4, 2 h
[3] = rat
Procedure: Test substances (i.e., mexiletine & mexiletine glutamic acid amide) were administered by oral gavage to groups of five male Sprague Dawley rats.
Blood samples were taken at various times after administration and submitted to analysis for the prodrug and parent drug using a validated LC-MS-MS assay. Pharmacokinetic parameters derived from the plasma analytical were determined using Win Nonlin.

[4] = tested on: 9-AC induced myotonia in the rat; experiment: Anti-myotonic effects in 9-anthracene carboxylic acid (9-AC) treated rats (righting time); type: in vivo; conditions: for Mean ± SEM righting response time: 9-AC 30 mg/kg ip
Procedure: The use of ip injection of 9-anthracene carboxylic acid is known to induce a myotonic state in rats which can then be used to assess the activity of potential anti-myotonic compounds (Villegas-NavarroA et al (1992) Exp. Toxicol. Pathol. 44 34-39).
Groups of four rats were predosed with 30 mg/kg 9-AC (time 0) and ten minutes later their righting time was assessed repeatedly seven times in rapid succession. They were then dosed po with mexiletine or mexiletine glutamic acid amide at 1, 5, 10, 20 or 40 mg/kg and the righting time reassessed at ˜30, 60, 120 and 180 minutes after 9-AC injection. At each dose level, a group of four control animals, given vehicle alone, was used

[5] = Systemic availability of mexiletine in the cynomolgus monkey from mexiletine prodrugs (oral gavage); type: in vivo; conditions: 1 mg/kg mexiletine free base
Procedure: Test substances (i.e., mexiletine, and various mexiletine amino acid prodrugs) were administered by oral gavage to groups of two and, in one case, five male cynomolgus monkeys. Blood samples were taken at various times after administration and submitted to analysis for the parent drug using a validated LC-MS-MS assay. Pharmacokinetic parameters derived from the plasma bioanalytical data were determined using Win Nonlin.

[6] = Systemic availability of mexiletine in the dog from mexiletine prodrugs (oral gavage); type: in vivo
Procedure: Test substances (i.e., mexiletine, and various mexiletine amino acid prodrugs) were administered by oral gavage to groups of two or some cases five dogs. The characteristics of the test animals are set out in Table 6.
Blood samples were taken at various times after administration and submitted to analysis for parent drug using a validated LC-MS-MS assay. Pharmacokinetic parameters derived from the plasma bioanalytical data were determined using Win Nonlin.

ADR mouse = experiment: Anti-myotonic effects in the ADR mouse (righting response); type: in vivo
Procedure: The effects of oral administration of either mexiletine glutamic acid amide at 5, 10 or 20 mg/kg or mexiletine 5 mg/kg on the righting response of a group of three adr/adr mice were examined on three separate days. Each assessment involved placing the individual mice on their back no fewer than seven successive occasions in rapid succession and determining the time to successful righting at various time pre and post dosing (−10, +15, +30, +60, +120 & +180 mins).

[7] = oral 5 mg mexiletine free base equivalents/kg, individual animals, Hydrochloride
[8] = oral 5 mg mexiletine free base equivalents/kg, plasma prodrug, individual animals, Hydrochloride
[9] = oral 5 mg mexiletine free base equivalents/kg, plasma prodrug, mean
[10] = 1 mg/kg mexiletine free base, plasma mexiletine

Cc1cccc(C)c1OCC(C)NC(=O)C(N)CCC(=O)O.Cl (mixture of isomers) [Mexiletine glutamic acid amide, Mexiletine-(S)-Glutamic Acid Amide Hydrochloride]
Simulated gastric fluid (pH 1.1): % remaining after 2 h/37° C. ([1]; simulated gastric fluid pH 1.1, 2 h): 100% | Simulated intestinal fluid (pH 6.8): % remaining after 2 h/37° C. ([1]; simulated intestinal fluid pH 6.8, 2 h): 98.3% | pH 7.4, 37° C. 0.1M phosphate buffer: % remaining after 2 h/37° C. [2]: 100% | Overall bioavailability of mexiletine from the prodrug vs mexiletine ([3]; oral): ~2.75 fold | Frel ([3]; oral 5 mg mexiletine free base equivalents/kg, individual animals, vs mexiletine, Hydrochloride): 163^c % and 152^c % and 232% and 303% and 283% | AUC of mexiletine [3, 7]: 29.2* ng · h/mL and 33.3 ng · h/mL and 43.4 ng · h/mL and 40.6 ng · h/mL | Cmax of mexiletine [3, 7]: 8.21 ng/mL and 8.99 ng/mL and 7.97 ng/mL and 10.4 ng/mL and 8.84 ng/mL | T>50% Cmax of mexiletine [3, 7]: 4.1 h (2×) and 2.5 h and 2.4 h and 3.9 h | Tmax of mexiletine [3, 7]: 1 h (3×) and 2 h (2×) | t 1/2 of mexiletine [3, 7]: 1.8* h and 2.6 h and 1.2 h and 2.5 h | t 1/2 of mexiletine, mean ([3]; oral 5 mg mexiletine free base equivalents/kg, ln2/mean k): 1.9^b h | Cmax of mexiletine, mean ([3]; oral 5 mg mexiletine free base equivalents/kg, mean): 8.88 ng/mL | AUC of mexiletine, mean ([3]; oral 5 mg mexiletine free base equivalents/kg, mean (values with extrapolated AUC > 25% omitted)): 39.1 ng·h/mL | Frel, mean ([3]; oral 5 mg mexiletine free base equivalents/kg, mean, vs mexiletine): 273% | Tmax of mexiletine, median ([3]; oral 5 mg mexiletine free base equivalents/kg, median value): 1^a h | T>50% Cmax of mexiletine, median ([3]; oral 5 mg mexiletine free base equivalents/kg, median value, Hydrochloride): 3.9^a h | T>50% Cmax of mexiletine, median ([3]; oral 5 mg mexiletine free base equivalents/kg, median value, listed as MGAA, Hydrochloride): ~4.0 h | AUC of mexiletine glutamic acid amide (prodrug) [3, 8]: 269 ng·h/mL and 266 ng·h/mL and 223 ng·h/mL and 320 ng·h/mL and 413 ng·h/mL | Cmax of mexiletine glutamic acid amide (prodrug) [3, 8]: 127 ng/mL and 186 ng/mL and 101 ng/mL and 180 ng/mL and 138 ng/mL | Tmax of mexiletine glutamic acid amide (prodrug) [3, 8]: 0.25 h and 0.5 h (2×) and 1.0 h (2×) | t 1/2 of mexiletine glutamic acid amide (prodrug) [3, 8]: 1.0 h and 0.9 h (2×) and 1.9 h and 1.3 h | t 1/2 of mexiletine glutamic acid amide (prodrug), mean ([3]; oral 5 mg mexiletine free base equivalents/kg, plasma prodrug, ln2/mean k): 1.0^b h | AUC of mexiletine glutamic acid amide (prodrug), mean [3, 9]: 298 ng·h/mL | Cmax of mexiletine glutamic acid amide (prodrug), mean [3, 9]: 146 ng/mL | Tmax of mexiletine glutamic acid amide (prodrug), median ([3]; oral 5 mg mexiletine free base equivalents/kg, plasma prodrug, median value): 0.5^a h | Coefficient of variation of the response ([4]; 10 mg/kg (same molar dose level), time of maximal effect of 9-AC (+30 mins)): 43.3% | Mean ± SEM righting response time ([4]; drug 1 mg/kg po, 9-AC +10 mins (predrug)): 1.98 ± 0.115 s | Mean ± SEM righting response time ([4]; drug 1 mg/kg po, 9-AC +30 mins): 3.52 ± 0.398 s | Mean ± SEM righting response time ([4]; drug 1 mg/kg po, 9-AC +60 mins): 1.86 ± 0.195 s | Mean ± SEM righting response time ([4]; drug 1 mg/kg po, 9-AC +120 mins): 1.07 ± 0.0369 s | Mean ± SEM righting response time ([4]; drug 1 mg/kg po, 9-AC +180 mins): 0.714 ± 0.0427 s | Mean ± SEM righting response time ([4]; drug 5 mg/kg po, 9-AC +10 mins (predrug)): 2.24 ± 0.208 s | Mean ± SEM righting response time ([4]; drug 5 mg/kg po, 9-AC +60 mins): 2.22 ± 0.0828 s | Mean ± SEM righting response time ([4]; drug 5 mg/kg po, 9-AC +120 mins): 1.32 ± 0.194 s | Mean ± SEM righting response time ([4]; drug 5 mg/kg po, 9-AC +180 mins): 1.11 ± 0.220 s | Mean ± SEM righting response time ([4]; drug 10 mg/kg po, 9-AC +10 mins (predrug)): 3.07 ± 0.754 s | Mean ± SEM righting response time ([4]; drug 10 mg/kg po, 9-AC +60 mins): 2.33 ± 0.472 s | Mean ± SEM righting response time ([4]; drug 10 mg/kg po, 9-AC +120 mins): 1.26 ± 0.105 s | Mean ± SEM righting response time ([4]; drug 10 mg/kg po, 9-AC +180 mins): 1.18 ± 0.156 s | Mean ± SEM righting response time ([4]; drug 20 mg/kg po, 9-AC +10 mins (predrug)): 1.90 ± 0.274 s | Mean ± SEM righting response time ([4]; drug 20 mg/kg po, 9-AC +60 mins): 1.51 ± 0.153 s | Mean ± SEM righting response time ([4]; drug 20 mg/kg po, 9-AC +120 mins): 1.18 ± 0.0973 s | Mean ± SEM righting response time ([4]; drug 20 mg/kg po, 9-AC +180 mins): 1.03 ± 0.0709 s | Mean ± SEM righting response time ([4]; drug 40 mg/kg po, 9-AC +10 mins (predrug)): 2.10 ± 0.077 s | Mean ± SEM righting response time ([4]; drug 40 mg/kg po, 9-AC +60 mins): 0.95 ± 0.166 s | Mean ± SEM righting response time ([4]; drug 40 mg/kg po, 9-AC +120 mins): 0.669 ± 0.0558 s | Mean ± SEM righting response time ([4]; drug 40 mg/kg po, 9-AC +180 mins): 0.570 ± 0.0576 s | AUC of mexiletine ([5]; plasma mexiletine): 604 ng·h/mL | Cmax of mexiletine ([5]; plasma mexiletine): 90.6 ng/mL | T50% Cmax ([5]; plasma mexiletine): 4.76 h | F(rel) ([5]; relative to mexiletine, Hydrochloride, 1 mg/kg): 87.6% | Bioavailability with respect to mexiletine [6]: near complete | AUC of mexiletine [6, 10]: 1020 ng·h/mL | Cmax of mexiletine [6, 10]: 104 ng/mL | T50% Cmax [6, 10]: 7.64 h | F(rel) ([6]; 1 mg/kg mexiletine free base, relative to mexiletine, Hydrochloride, 1 mg/kg): 94.9% | Effects on righting time (ADR mouse; oral 5 mg/kg): marginal | Mean ± SEM righting response time (ADR mouse; oral 5 mg/kg, +15 mins): 5.70 ± 0.864 s | Mean ± SEM righting response time (ADR mouse; oral 5 mg/kg, +30 mins): 6.53 ± 0.928 s | Mean ± SEM righting response time (ADR mouse; oral 5 mg/kg, +60 mins): 7.13 ± 1.46 s | Mean ± SEM righting response time (ADR mouse; oral 5 mg/kg, +120 mins): 9.22 ± 1.44 s | Mean ± SEM righting response time (ADR mouse; oral 5 mg/kg, +180 mins): 8.38 ± 0.601 s | Mean ± SEM righting response time (ADR mouse; oral 5 mg/kg, −10 mins (pre dosing)): 5.10 ± 0.580 s | Mean ± SEM righting response time (ADR mouse; oral 10 mg/kg, +15 mins): 3.14 ± 0.278 s | Mean ± SEM righting response time (ADR mouse; oral 10 mg/kg, +30 mins, listed as MGAA, Hydrochloride, 10 mg/kg): 2.74+0.37 secs and 2.74 ± 0.373 secs | Mean ± SEM righting response time (ADR mouse; oral 10 mg/kg, +60 mins): 4.41 ± 1.02 s | Mean ± SEM righting response time (ADR mouse; oral 10 mg/kg, +120 mins): 5.45 ± 0.529 s | Mean ± SEM righting response time (ADR mouse; oral 10 mg/kg, +180 mins): 6.92 ± 1.05 s | Mean ± SEM righting response time (ADR mouse; oral 10 mg/kg, −10 mins (pre dosing), listed as MGAA, Hydrochloride, 10 mg/kg): 5.18 ± 0.43 s and 5.18 ± 0.427 s | Mean ± SEM righting response time (ADR mouse; oral 20 mg/kg, +15 mins): 4.23 ± 1.09 s | Mean ± SEM righting response time (ADR mouse; oral 20 mg/kg, +30 mins): 3.06 ± 0.884 s | Mean ± SEM righting response time (ADR mouse; oral 20 mg/kg, +60 mins): 4.05 ± 0.286 s | Mean ± SEM righting response time (ADR mouse; oral 20 mg/kg, +120 mins): 5.90 ± 0.568 s | Mean ± SEM righting response time (ADR mouse; oral 20 mg/kg, +180 mins): 7.90 ± 1.34 s | Mean maximum reduction in righting time (ADR mouse; oral 20 mg/kg, extended over 3 hours): ~60% | Mean ± SEM righting response time (ADR mouse; oral 20 mg/kg, −10 mins (pre dosing)): 7.13 ± 1.84 s
